From US12590099B2, “Inhibitors of histone deacetylase useful for the treatment or prevention of HIV infection” (Merck Sharp & Dohme LLC, priority 2018, dated 2026) come the findings set out here.

What is called IC50 is the concentration that gives 50% inhibition. For orientation: EC50 means the concentration at which the effect is half-maximal.

The target in test [1] is T1, Recombinant human HDAC3/SMRT heterodimer (Homo sapiens, UniProt O15379).
T1 construct: FLAG (C); made in house
In words: Human HDAC enzyme inhibitor Fluor-de-Lys assay, HDAC3/SMRT. In kind it is biochemical. Conditions: recombinant human HDAC3/SMRT, Fluor-de-Lys assay.

The test system of test [2] is KARN cells (Jurkat 2C4). Nature of the test: cells. The test is classed as cell-based. The following applies: Homo sapiens, Jurkat, luciferase induction, 100% = 2 μM SAHA. A digest of the protocol: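 Jurkat 2C4 (KARN) cells dosed with test compounds up to 40 μM final, 0.4% DMSO, overnight at 5% CO2; luciferase read by Steady-Glo luminescence after 10 min at room temperature. DMSO set as 0% and 2 μM SAHA as 100% induction; 4-parameter fit of percent activation.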

In test [3] the target is T2, Recombinant human HDAC1 (Homo sapiens, UniProt Q13547).
T2 construct: FLAG (C); made in house
In words: Human HDAC enzyme inhibitor Fluor-de-Lys assay, HDAC1. In kind it is biochemical. Conditions: recombinant human HDAC1, Fluor-de-Lys assay. In short, it runs like this:
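Fluor-de-Lys format at room temperature (23° C.): compounds titrated 10-point, 1:3, preincubated with HDAC before substrate addition; HDAC1 run at 0.3 nM enzyme with 20 μM BML-KI104. Developer with excess HDAC inhibitor ends the reaction, and trypsin-liberated AMC fluorescence is the read-out.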

Where [4] appears, read: read-out: Karn EC50 (nM) 0.1% NHS, 0.1% normal human serum.
Setting [5] is: read-out: Karn EC50 (nM) 5% NHS, 5% normal human serum.

Structures are written as SMILES. Like-named read-outs stand apart in the source and are kept apart here.

T2 sequence (Q13547 whole entry): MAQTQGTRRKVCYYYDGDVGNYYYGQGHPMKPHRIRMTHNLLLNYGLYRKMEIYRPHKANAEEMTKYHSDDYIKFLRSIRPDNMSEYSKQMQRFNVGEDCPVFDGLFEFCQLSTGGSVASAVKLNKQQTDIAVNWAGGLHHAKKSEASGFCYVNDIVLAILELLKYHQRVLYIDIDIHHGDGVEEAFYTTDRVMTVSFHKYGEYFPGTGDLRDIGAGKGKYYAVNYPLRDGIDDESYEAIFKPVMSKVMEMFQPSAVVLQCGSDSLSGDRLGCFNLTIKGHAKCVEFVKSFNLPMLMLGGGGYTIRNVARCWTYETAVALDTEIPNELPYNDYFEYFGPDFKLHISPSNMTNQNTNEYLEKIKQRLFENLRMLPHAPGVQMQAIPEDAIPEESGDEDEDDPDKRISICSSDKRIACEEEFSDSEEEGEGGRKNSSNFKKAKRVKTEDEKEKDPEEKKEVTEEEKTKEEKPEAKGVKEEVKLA
T1 sequence (O15379 whole entry): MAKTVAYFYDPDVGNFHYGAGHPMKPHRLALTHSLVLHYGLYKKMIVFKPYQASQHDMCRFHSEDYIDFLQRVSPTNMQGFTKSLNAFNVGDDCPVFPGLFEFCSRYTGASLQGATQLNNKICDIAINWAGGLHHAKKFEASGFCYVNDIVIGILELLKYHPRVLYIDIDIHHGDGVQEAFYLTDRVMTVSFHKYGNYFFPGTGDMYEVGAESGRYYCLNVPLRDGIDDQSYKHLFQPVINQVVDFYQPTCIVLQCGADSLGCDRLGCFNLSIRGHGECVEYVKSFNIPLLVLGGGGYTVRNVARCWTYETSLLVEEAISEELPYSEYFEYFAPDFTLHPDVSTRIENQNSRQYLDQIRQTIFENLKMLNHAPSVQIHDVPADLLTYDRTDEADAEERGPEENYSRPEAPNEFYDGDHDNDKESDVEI
T1 sequence (Q9Y618 1-899 partner limits assumed): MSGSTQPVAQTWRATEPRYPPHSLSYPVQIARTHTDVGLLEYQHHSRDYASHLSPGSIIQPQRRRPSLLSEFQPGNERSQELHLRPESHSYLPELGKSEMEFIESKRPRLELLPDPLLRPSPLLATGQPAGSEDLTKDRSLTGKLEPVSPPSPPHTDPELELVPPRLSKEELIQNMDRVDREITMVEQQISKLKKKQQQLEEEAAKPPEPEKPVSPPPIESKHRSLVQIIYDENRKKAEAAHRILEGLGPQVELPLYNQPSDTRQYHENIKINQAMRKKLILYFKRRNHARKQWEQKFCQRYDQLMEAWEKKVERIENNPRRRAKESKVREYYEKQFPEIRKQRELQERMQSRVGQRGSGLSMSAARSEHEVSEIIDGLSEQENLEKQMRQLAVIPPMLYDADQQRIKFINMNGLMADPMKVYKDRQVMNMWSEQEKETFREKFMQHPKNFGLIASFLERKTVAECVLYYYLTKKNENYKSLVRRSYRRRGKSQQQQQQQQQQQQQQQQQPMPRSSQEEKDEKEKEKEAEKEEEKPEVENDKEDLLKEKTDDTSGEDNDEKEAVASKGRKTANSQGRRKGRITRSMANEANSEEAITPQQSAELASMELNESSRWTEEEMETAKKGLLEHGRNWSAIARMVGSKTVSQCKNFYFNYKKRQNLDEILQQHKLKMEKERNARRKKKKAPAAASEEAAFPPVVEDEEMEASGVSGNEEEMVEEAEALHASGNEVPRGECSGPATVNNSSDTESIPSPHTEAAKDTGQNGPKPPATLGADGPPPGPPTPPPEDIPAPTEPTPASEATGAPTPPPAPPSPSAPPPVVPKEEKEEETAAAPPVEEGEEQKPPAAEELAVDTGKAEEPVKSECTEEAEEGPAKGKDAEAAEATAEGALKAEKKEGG

Turning to `CCC(=O)CCCCC[C@H](NC(=O)CC1CC2(C1)CN(C(C)C)C2)c1ncc(-c2cc3ccccc3nc2OC)[nH]1` [Compound 273], the IC50 in test [1] and in test [3] was under 1.5 nM in each case. Besides, the EC50 in test [2] (setting [4]) came out at 111 nM; in test [2] (setting [5]) it was 438 nM.

In the case of `CCC(=O)CCCCC[C@H](NC(=O)C1(N)CC2(CN(C)C2)C1)c1ncc(-c2cc3ccccc3nc2OC)[nH]1` [Compound 276], the 50% inhibitory concentration (IC50) in test [1] is 1.57 nM; in test [3], 1.56 nM. In addition, the EC50 in test [2] (setting [4]) came out at 1560 nM; in test [2] (setting [5]), 4780 nM.

Regarding `CCC(=O)CCCCC[C@H](NC(=O)[C@H]1CC12CCN(C)CC2)c1ncc(-c2ccc(F)cc2)[nH]1` [Compound 280], the values for the half-inhibitory concentration (IC50) in test [1] and in test [3] were 10.6 nM and 30 nM, respectively. The figures for the EC50 in test [2] (setting [4]) and in test [2] (setting [5]) were 1020 nM and 919 nM, respectively.

Take `CCC(=O)CCCCC[C@H](NC(=O)[C@H]1CC12CCN(C)CC2)c1ncc(-c2ccc(C(F)(F)F)cc2)[nH]1` [Compound 284]: the results for the half-inhibitory concentration (IC50) in test [1] and in test [3] were 6.09 nM and 18.6 nM, respectively. In addition, the results for the EC50 in test [2] (setting [4]) and in test [2] (setting [5]) were 606 nM and 598 nM, respectively.

With `CCC(=O)CCCCC[C@H](NC(=O)[C@H]1CC12CCN(C)CC2)c1ncc(-c2ccc(F)cc2F)[nH]1` [Compound 289], the IC50 in test [1] was 21.7 nM; in test [3], 63.1 nM. For the same compound, the 50% effective concentration (EC50) in test [2] (setting [4]) worked out at 1060 nM; in test [2] (setting [5]), 1090 nM.

Take `CCC(=O)CCCCC[C@H](NC(=O)[C@H]1CC12CCN(C)CC2)c1ncc(-c2ccccc2F)[nH]1` [Compound 290]: the IC50 was 4.08 nM in test [1] and 15.4 nM in test [3]. For the same compound, the EC50 is 415 nM in test [2] (setting [4]) and 519 nM in test [2] (setting [5]).

For `CCC(=O)CCCCC[C@H](NC(=O)CC1CC2(CNC2)C1)c1ncc(-c2ccccc2)[nH]1` [Compound 297], the IC50 is 9.69 nM in test [1] and 27.9 nM in test [3]. Besides, the EC50 in test [2] (setting [4]) was 5840 nM; in test [2] (setting [5]) it was 15800 nM.

Take `CCC(=O)CCCCC[C@@H](NC(=O)C1CCC2(CC1)CNC2)c1ncc(-c2ccccc2)[nH]1` [Compound 298]: the 50% inhibitory concentration (IC50) in test [1] turned out to be 10.4 nM; in test [3] it was 36.5 nM. For the same compound, the half-maximal effective concentration (EC50) in test [2] (setting [4]) is 7010 nM; in test [2] (setting [5]), 11800 nM.

For `CCC(=O)CCCCC[C@H](NC(=O)C1CCC2(CC1)CNC2)c1nnc(-c2cc3ccccc3nc2OC)o1` [Compound 299], the IC50 came to 6.56 nM in test [1] and 12.2 nM in test [3]. Moreover, the values for the 50% effective concentration (EC50) in test [2] (setting [4]) and in test [2] (setting [5]) were 7000 nM and 9270 nM, respectively.

Turning to `CCC(=O)CCCCC[C@H](NC(=O)CC1CC2(C1)CN(C(C)=O)C2)c1ncc(-c2ccccc2)[nH]1` [Compound 300, (S)-2-(2-acetyl-2-azaspiro[3.3]heptan-6-yl)-N-(7-oxo-1-(5-phenyl-1H-imidazol-2-yl)nonyl)acetamide], the figures for the IC50 in test [1] and in test [3] were 38.7 nM and 199 nM, respectively. For the same compound, the EC50 in test [2] (setting [4]) was 9210 nM; in test [2] (setting [5]), 10200 nM.

On to `CCC(=O)CCCCC[C@H](NC(=O)CC1CC2(CNC2)C1)c1nnc(-c2cc3ccccc3nc2OC)o1` [Compound 301], for which the IC50 came out at 15.8 nM in test [1] and 24.6 nM in test [3]. Further, the concentration giving a half-maximal response (EC50) in test [2] (setting [4]) stood at 24200 nM.

Regarding `CCC(=O)CCCCC[C@H](NC(=O)C1CC12CCNCC2)c1nnc(-c2cc3ccccc3nc2OC)o1` (some centres unmarked) [Compound 303], the IC50 was 10.5 nM in test [1] and 17.2 nM in test [3]. The values for the 50% effective concentration (EC50) in test [2] (setting [4]) and in test [2] (setting [5]) were 2430 nM and 4260 nM, respectively.

Regarding `CCC(=O)CCCCC[C@H](NC(=O)CC1CC2(C1)CN(C)C2)c1ncc(-c2ccccc2)[nH]1` [Compound 307], the results for the IC50 in test [1] and in test [3] were 16.9 nM and 62.9 nM, respectively. Moreover, the EC50 in test [2] (setting [4]) was 3700 nM; in test [2] (setting [5]), 2570 nM.

In the case of `CCC(=O)CCCCC[C@H](NC(=O)CC1CC2(C1)CN(C)C2)c1nnc(-c2cc3ccccc3nc2OC)o1` [Compound 308], the 50% inhibitory concentration (IC50) in test [1] turned out to be 27.4 nM; in test [3], 27.3 nM. The concentration for a half-maximal effect (EC50) stood at 2690 nM in test [2] (setting [4]) and 3700 nM in test [2] (setting [5]).

On to `CCC(=O)CCCCC[C@@H](NC(=O)C1CCC2(CC1)CN(C)C2)c1ncc(-c2ccccc2)[nH]1` [Compound 310], for which the IC50 in test [1] came to 10.4 nM; in test [3], 33 nM. For the same compound, the results for the concentration giving a half-maximal response (EC50) in test [2] (setting [4]) and in test [2] (setting [5]) were 1490 nM and 1920 nM, respectively.

Turning to `CCC(=O)CCCCC[C@H](NC(=O)C1NC(=O)CC12CN(C)C2)c1ncc(-c2cc3ccccc3nc2OC)[nH]1` (some centres unmarked) [Compound 317], the 50% inhibitory concentration (IC50) was 0.84 nM in test [1] and 0.87 nM in test [3]. Besides, the results for the EC50 in test [2] (setting [4]) and in test [2] (setting [5]) were 591 nM and 1720 nM, respectively.

Regarding `CCC(=O)CCCCC[C@H](NC(=O)CC1CC2(C1)CN(C)C2)c1ncc(-c2cc3ccccc3nc2O)[nH]1` [Compound 326], the 50% inhibitory concentration (IC50) in test [1] stood at 1.58 nM; in test [3], 3.27 nM. For the same compound, the figures for the concentration giving a half-maximal response (EC50) in test [2] (setting [4]) and in test [2] (setting [5]) were 2400 nM and 3820 nM, respectively.

For `CCC(=O)CCCCC[C@H](NC(=O)[C@H]1CC12CCN(CC)CC2)c1ncc(-c2cnc3cc(C(F)(F)F)ccc3c2)[nH]1` [Compound 341], the IC50 in test [1] is 0.43 nM; in test [3], 0.42 nM. The half-maximal effective concentration (EC50) in test [2] (setting [4]) is 44 nM; in test [2] (setting [5]) it was 70 nM.

For the compound `CCC(=O)CCCCC[C@H](NC(=O)[C@H]1CC12CCN(C)CC2)c1ncc(-c2ccc3ccc(C)nc3c2F)[nH]1` [Compound 354], the 50% inhibitory concentration (IC50) was determined as 2.18 nM in test [1] and 1.82 nM in test [3]. The half-maximal effective concentration (EC50) in test [2] (setting [4]) was determined as 264 nM; in test [2] (setting [5]), 295 nM.

`CCC(=O)CCCCCC(NC(=O)C1CCC2(CC1)OC(=O)c1ccncc12)c1nnc(-c2cc3ccccc3nc2OC)o1` (centres unmarked) [Compound 363]: the half-inhibitory concentration (IC50) in test [1] is 33.5 nM; in test [3], 85.5 nM. Also, the concentration giving a half-maximal response (EC50) in test [2] (setting [4]) is 2080 nM; in test [2] (setting [5]) it was 4810 nM.

Consider `CCC(=O)CCCCCC(NC(=O)C1CCC2(CC1)OC(=O)c1cnccc12)c1nnc(-c2cc3ccccc3nc2OC)o1` (centres unmarked) [Compound 364], for which the 50% inhibitory concentration (IC50) in test [1] was found to be 21.8 nM; in test [3], 63 nM. Also, the EC50 in test [2] (setting [4]) turned out to be 1770 nM; in test [2] (setting [5]) it was 4310 nM.
